Assays:
[1] = target: T1, D(4) dopamine receptor (Homo sapiens, UniProt P21917); assay: DRUGMATRIX: Dopamine D4.2 radioligand binding (ligand: [3H] Spiperone); type: cell membranes, CHO-K1, Membrane; settings: cho-k1; Not Active = under 50% inhibition at 10 µM
T1 sequence (P21917 whole entry): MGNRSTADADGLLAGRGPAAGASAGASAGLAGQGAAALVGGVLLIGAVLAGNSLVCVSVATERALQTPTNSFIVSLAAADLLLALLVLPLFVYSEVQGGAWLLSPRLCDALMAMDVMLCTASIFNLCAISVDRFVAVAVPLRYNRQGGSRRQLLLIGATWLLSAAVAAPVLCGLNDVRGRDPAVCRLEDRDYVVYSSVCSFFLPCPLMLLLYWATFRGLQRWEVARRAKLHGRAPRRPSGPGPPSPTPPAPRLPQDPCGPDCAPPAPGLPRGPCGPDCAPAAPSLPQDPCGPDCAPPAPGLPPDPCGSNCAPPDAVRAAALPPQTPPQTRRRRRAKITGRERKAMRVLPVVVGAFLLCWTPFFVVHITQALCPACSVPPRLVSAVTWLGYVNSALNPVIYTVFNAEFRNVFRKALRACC

[2] = target: Substance-P receptor (Homo sapiens, UniProt P25103); type: cell membranes, CHO, Membrane; settings: cho; note: in other assays of this panel Not Active means under 50% inhibition at 10 µM
[3] = DRUGMATRIX: Sodium/nucleoside co-transporter radioligand binding (ligand: nitrobenzylthioinosine); type: cell membranes, Cavia porcellus, Dunkin-Hartley, Cerebral cortex, Membrane; settings: Not Active = under 50% inhibition at 10 µM
[4] = DRUGMATRIX: Purinergic P2X radioligand binding (ligand: [3H] alpha, beta-Methylene-ATP); type: cell membranes, Oryctolagus cuniculus, New Zealand albino, Urinary bladder, Membrane; settings: Not Active = under 50% inhibition at 10 µM
[5] = target: Delta-type opioid receptor (Homo sapiens, UniProt P41143); type: cell membranes, HEK293, Membrane; settings: hek293; note: in other assays of this panel Not Active means under 50% inhibition at 10 µM
[6] = target: Cannabinoid receptor 1 (Homo sapiens, UniProt P21554); type: cell membranes, Chem-1, Membrane; settings: chem-1; note: in other assays of this panel Not Active means under 50% inhibition at 10 µM
[7] = target: T2, Polyunsaturated fatty acid lipoxygenase ALOX15 (Oryctolagus cuniculus, UniProt P12530); assay: biochemical; type: tissue-based, Reticulocytes;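 note: inhibition of 15-lipoxygenase enzyme activity measured with linoleic acid as the substrate; in other assays of this panel Not Active means under 50% inhibition at 10 µM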
T2 sequence (P12530 whole entry): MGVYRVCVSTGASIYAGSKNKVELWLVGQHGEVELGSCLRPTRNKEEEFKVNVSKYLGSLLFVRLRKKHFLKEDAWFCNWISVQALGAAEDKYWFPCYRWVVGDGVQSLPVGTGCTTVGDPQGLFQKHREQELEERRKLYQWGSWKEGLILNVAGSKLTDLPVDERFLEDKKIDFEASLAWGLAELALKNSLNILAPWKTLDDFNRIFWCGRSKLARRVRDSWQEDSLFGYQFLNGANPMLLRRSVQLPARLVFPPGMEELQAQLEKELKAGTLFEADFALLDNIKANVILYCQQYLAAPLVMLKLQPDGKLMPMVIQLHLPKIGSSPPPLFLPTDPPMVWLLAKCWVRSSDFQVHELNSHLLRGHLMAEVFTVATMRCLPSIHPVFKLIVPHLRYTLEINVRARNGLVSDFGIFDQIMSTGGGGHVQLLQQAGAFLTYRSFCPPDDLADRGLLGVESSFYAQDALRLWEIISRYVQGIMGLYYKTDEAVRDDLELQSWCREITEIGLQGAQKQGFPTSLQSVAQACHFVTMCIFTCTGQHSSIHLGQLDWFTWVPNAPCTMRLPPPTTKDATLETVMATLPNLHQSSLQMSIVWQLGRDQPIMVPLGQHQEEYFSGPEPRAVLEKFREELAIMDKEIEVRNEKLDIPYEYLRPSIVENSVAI

[8] = DRUGMATRIX: Serotonin (5-Hydroxytryptamine) 5-HT3 radioligand binding (ligand: [3H] GR-65630); type: cell membranes, Membrane; settings: hek293; Not Active = under 50% inhibition at 10 µM

Chain of Substance-P receptor (P25103 whole entry): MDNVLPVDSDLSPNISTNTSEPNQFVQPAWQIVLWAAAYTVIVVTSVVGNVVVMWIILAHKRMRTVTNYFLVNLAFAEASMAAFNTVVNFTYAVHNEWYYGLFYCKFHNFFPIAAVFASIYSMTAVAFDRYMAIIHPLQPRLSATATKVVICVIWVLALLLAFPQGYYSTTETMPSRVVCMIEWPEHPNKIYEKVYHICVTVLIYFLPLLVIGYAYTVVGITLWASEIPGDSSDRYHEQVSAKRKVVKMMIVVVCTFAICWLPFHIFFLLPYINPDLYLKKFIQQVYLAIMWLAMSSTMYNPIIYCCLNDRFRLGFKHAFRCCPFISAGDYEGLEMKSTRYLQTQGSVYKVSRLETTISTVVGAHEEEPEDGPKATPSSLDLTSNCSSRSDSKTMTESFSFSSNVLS
Chain of Cannabinoid receptor 1 (P21554 whole entry): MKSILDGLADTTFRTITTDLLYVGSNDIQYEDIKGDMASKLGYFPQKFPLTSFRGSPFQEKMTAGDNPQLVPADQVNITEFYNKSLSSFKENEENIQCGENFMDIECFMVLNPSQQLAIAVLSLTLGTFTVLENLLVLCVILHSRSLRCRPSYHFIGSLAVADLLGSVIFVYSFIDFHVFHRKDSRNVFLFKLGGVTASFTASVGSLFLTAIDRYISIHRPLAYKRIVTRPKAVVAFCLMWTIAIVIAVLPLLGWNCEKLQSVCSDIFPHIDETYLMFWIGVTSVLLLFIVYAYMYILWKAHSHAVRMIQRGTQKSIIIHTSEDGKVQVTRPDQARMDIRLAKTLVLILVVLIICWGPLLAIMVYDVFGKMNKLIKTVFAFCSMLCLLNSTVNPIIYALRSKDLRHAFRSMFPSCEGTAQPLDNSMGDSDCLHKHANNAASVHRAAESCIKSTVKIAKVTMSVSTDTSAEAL
Chain of Delta-type opioid receptor (P41143 whole entry): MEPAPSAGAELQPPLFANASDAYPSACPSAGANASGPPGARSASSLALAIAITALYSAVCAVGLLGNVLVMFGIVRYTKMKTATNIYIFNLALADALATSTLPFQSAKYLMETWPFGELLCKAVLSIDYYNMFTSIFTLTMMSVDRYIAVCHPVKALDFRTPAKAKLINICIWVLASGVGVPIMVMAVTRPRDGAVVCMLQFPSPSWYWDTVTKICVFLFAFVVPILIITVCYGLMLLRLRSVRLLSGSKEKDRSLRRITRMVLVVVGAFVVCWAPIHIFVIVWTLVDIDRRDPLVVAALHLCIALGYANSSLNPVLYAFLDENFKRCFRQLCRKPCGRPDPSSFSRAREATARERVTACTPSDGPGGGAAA

Compound | IC50 [1] | IC50 [2] | IC50 [3] | Ki [3] | IC50 [4] | Ki [4] | IC50 [5] | IC50 [6] | IC50 ([7]; reticulocytes) | IC50 [8] | Ki [8] | IC50 ([7]; read-out: IC50) [µM]
C[S+](C)[O-] [DIMETHYL SULFOXIDE] | Not Active | Not Active | Not Active | Not Active | Not Active | Not Active | Not Active | Not Active | Not Active | Not Active | Not Active | 
CC1=NN(c2ccccc2)C(=O)C1 [EDARAVONE] | Not Active | Not Active | Not Active | Not Active | Not Active | Not Active | Not Active | Not Active | Not Active | Not Active | Not Active | 
CC(C)C[C@H]1C(=O)N2CCC[C@H]2[C@]2(O)O[C@](NC(=O)[C@@H]3C=C4c5cccc6[nH]cc(c56)C[C@H]4N(C)C3)(C(C)C)C(=O)N12 [ERGOCRYPTINE] | Not Active | Not Active | Not Active | Not Active | Not Active | Not Active | Not Active | Not Active | Not Active | Not Active | Not Active | 
C[C@]12CC[C@@H]3c4ccc(O)cc4CC[C@H]3[C@@H]1C[C@@H](O)[C@@H]2O [ESTRIOL] | Not Active | Not Active | Not Active | Not Active | Not Active | Not Active | Not Active | Not Active |  | Not Active | Not Active | 8.64
C#C[C@]1(O)CC[C@H]2[C@@H]3CCC4=CC(=O)CC[C@]4(C)[C@H]3CC[C@@]21C [ETHISTERONE] | Not Active | Not Active | Not Active | Not Active | Not Active | Not Active | Not Active | Not Active | Not Active | Not Active | Not Active | 
CC(O)(P(=O)(O)O)P(=O)(O)O [ETIDRONIC ACID] | Not Active | Not Active | Not Active | Not Active | Not Active | Not Active | Not Active | Not Active | Not Active | Not Active | Not Active | 
CC(C)(C(=O)O)c1ccc(C(O)CCCN2CCC(C(O)(c3ccccc3)c3ccccc3)CC2)cc1 (stereo unspecified) [FEXOFENADINE] | Not Active | Not Active | Not Active | Not Active | Not Active | Not Active | Not Active | Not Active | Not Active | Not Active | Not Active | 
CN1CCN(c2c(F)cc3c(=O)c(C(=O)O)cn(CCF)c3c2F)CC1 [FLEROXACIN] | Not Active | Not Active | Not Active | Not Active | Not Active | Not Active | Not Active | Not Active | Not Active | Not Active | Not Active | 
O=c1[nH]c(=O)n([C@H]2C[C@H](O)[C@@H](CO)O2)cc1F [FLOXURIDINE] | Not Active | Not Active | Not Active | Not Active | Not Active | Not Active | Not Active | Not Active | Not Active | Not Active | Not Active | 
COC(=O)Nc1nc2cc(C(=O)c3ccc(F)cc3)ccc2[nH]1 [FLUBENDAZOLE] | Not Active | Not Active | Not Active | Not Active | Not Active | Not Active | Not Active | Not Active | Not Active | Not Active | Not Active | 
CC(=O)OCC(=O)[C@@]1(O)CC[C@H]2[C@@H]3CCC4=CC(=O)CC[C@]4(C)[C@@]3(F)[C@@H](O)C[C@@]21C [FLUDROCORTISONE ACETATE] | Not Active | Not Active | Not Active | Not Active | Not Active | Not Active | Not Active | Not Active | Not Active | Not Active | Not Active | 
CCOC(=O)c1ncn2c1CN(C)C(=O)c1cc(F)ccc1-2 [FLUMAZENIL] | Not Active | Not Active | Not Active | Not Active | Not Active | Not Active | Not Active | Not Active | Not Active | Not Active | Not Active | 
CC(=O)OCC(=O)[C@@]12OC(C)(C)O[C@@H]1C[C@H]1[C@@H]3C[C@H](F)C4=CC(=O)C=C[C@]4(C)[C@@]3(F)[C@@H](O)C[C@@]12C [FLUOCINONIDE] | Not Active | Not Active | Not Active | Not Active | Not Active | Not Active | Not Active | Not Active | Not Active | Not Active | Not Active | 
O=C(O)P(=O)(O)O [FOSCARNET] | Not Active | Not Active | Not Active | Not Active | Not Active | Not Active | Not Active | Not Active | Not Active | Not Active | Not Active | 
Cc1ccc(C)c(OCCCC(C)(C)C(=O)O)c1 [GEMFIBROZIL] | Not Active | Not Active | Not Active | Not Active | Not Active | Not Active | Not Active | Not Active | Not Active | Not Active | Not Active | 
O=c1c(-c2ccc(O)cc2)coc2cc(O)cc(O)c12 [GENISTEIN] | Not Active | Not Active | Not Active | Not Active | Not Active | Not Active | Not Active | Not Active |  | Not Active | Not Active | 9.03
CCC1=C(C)CN(C(=O)NCCc2ccc(S(=O)(=O)NC(=O)N[C@H]3CC[C@H](C)CC3)cc2)C1=O [GLIMEPIRIDE] | Not Active | Not Active | Not Active | Not Active | Not Active | Not Active | Not Active | Not Active | Not Active | Not Active | Not Active | 
Nc1cc(-c2ccncc2)c[nH]c1=O [INAMRINONE] | Not Active | Not Active | Not Active | Not Active | Not Active | Not Active | Not Active | Not Active | Not Active | Not Active | Not Active | 
CCCCC1=NC2(CCCC2)C(=O)N1Cc1ccc(-c2ccccc2-c2nnn[nH]2)cc1 [IRBESARTAN] | Not Active | Not Active | Not Active | Not Active | Not Active | Not Active | Not Active | Not Active | Not Active | Not Active | Not Active | 
CN1CCC(=C2c3ccccc3CC(=O)c3sccc32)CC1 [KETOTIFEN] | Not Active | Not Active | Not Active | Not Active | Not Active | Not Active | Not Active | Not Active | Not Active | Not Active | Not Active | 
N[C@@H](Cn1ccc(=O)c(O)c1)C(=O)O [L-MIMOSINE] | Not Active | Not Active | Not Active | Not Active | Not Active | Not Active | Not Active | Not Active | Not Active | Not Active | Not Active | 
